Key:
Format in all cases: biochemical
matriptase = target: T1, matriptase (Homo sapiens, UniProt Q9Y5Y6); test: HyCoSuL P4-P2 substrate specificity screening, matriptase; settings: for P2 Position Substrate Activity for matriptase (percent substrate cleavage/proteolysis): residue fixed at P2 position; for P2 Position Substrate Activity for matriptase (percent substrate cleavage/proteolysis) / P3 Position Substrate Activity for matriptase (percent substrate cleavage/proteolysis): P1-Arg HyCoSuL, 100 μM, best recognized amino acid set to 100%; for P3 Position Various Amino Acids Substrate Activity, matriptase (percent substrate cleavage/proteolysis): residue fixed at P3 position of substrate library; for P4 Position Various Amino Acids Substrate Activity, matriptase (percent substrate proteolysis/cleavage): residue fixed at P4 position of substrate library; for P3 Position Substrate Activity for matriptase (percent substrate cleavage/proteolysis): residue fixed at P3 position
T1 sequence (Q9Y5Y6 1-855): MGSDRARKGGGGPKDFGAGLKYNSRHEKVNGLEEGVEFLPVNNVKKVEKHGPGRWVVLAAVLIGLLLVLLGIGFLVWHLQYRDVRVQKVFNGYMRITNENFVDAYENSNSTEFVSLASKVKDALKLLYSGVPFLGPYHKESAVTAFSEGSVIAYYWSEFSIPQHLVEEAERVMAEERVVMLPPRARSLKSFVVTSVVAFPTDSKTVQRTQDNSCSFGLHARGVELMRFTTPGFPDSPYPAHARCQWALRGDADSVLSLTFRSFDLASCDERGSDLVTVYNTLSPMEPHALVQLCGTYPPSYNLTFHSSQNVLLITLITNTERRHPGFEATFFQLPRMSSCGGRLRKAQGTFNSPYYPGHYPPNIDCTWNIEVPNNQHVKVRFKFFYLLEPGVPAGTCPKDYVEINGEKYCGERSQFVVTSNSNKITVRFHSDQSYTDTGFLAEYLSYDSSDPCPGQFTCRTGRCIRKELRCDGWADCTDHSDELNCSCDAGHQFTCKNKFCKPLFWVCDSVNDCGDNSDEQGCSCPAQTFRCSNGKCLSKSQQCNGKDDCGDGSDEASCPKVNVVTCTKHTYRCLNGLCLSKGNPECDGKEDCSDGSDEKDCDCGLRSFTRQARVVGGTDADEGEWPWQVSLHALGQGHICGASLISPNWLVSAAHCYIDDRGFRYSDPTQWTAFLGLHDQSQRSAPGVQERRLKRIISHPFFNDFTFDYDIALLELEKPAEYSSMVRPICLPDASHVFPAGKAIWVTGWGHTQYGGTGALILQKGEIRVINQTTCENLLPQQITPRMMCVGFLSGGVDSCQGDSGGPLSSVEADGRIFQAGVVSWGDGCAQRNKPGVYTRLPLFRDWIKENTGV

HGFA = target: T2, HGFA (Homo sapiens, UniProt Q04756); test: HyCoSuL P4-P2 substrate specificity screening, HGFA; settings: for P2 Position Substrate Activity for HGFA (percent substrate cleavage/proteolysis): residue fixed at P2 position; for P2 Position Substrate Activity for HGFA (percent substrate cleavage/proteolysis) / P3 Position Substrate Activity for HGFA (percent substrate cleavage/proteolysis): P1-Arg HyCoSuL, 100 μM, best recognized amino acid set to 100%; for P3 Position Various Amino Acids Substrate Activity, HGFA (percent substrate cleavage/proteolysis): residue fixed at P3 position of substrate library; for P4 Position Various Amino Acids Substrate Activity, HGFA (percent substrate proteolysis/cleavage): residue fixed at P4 position of substrate library; for P3 Position Substrate Activity for HGFA (percent substrate cleavage/proteolysis): residue fixed at P3 position
T2 sequence (Q04756 373-655): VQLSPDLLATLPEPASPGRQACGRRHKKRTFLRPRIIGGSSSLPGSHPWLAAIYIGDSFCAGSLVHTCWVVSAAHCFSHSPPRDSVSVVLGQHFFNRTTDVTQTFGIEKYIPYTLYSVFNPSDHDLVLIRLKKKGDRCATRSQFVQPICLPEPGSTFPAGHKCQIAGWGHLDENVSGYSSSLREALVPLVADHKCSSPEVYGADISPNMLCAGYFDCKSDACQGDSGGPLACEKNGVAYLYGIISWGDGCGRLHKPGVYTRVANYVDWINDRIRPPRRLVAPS

hepsin = target: T3, hepsin (Homo sapiens, UniProt P05981); test: HyCoSuL P4-P2 substrate specificity screening, hepsin; settings: for P2 Position Substrate Activity for hepsin (percent substrate cleavage/proteolysis): residue fixed at P2 position; for P2 Position Substrate Activity for hepsin (percent substrate cleavage/proteolysis) / P3 Position Substrate Activity for hepsin (percent substrate cleavage/proteolysis): P1-Arg HyCoSuL, 100 μM, best recognized amino acid set to 100%; for P3 Position Various Amino Acids Substrate Activity, hepsin (percent substrate cleavage/proteolysis): residue fixed at P3 position of substrate library; for P4 Position Various Amino Acids Substrate Activity, hepsin (percent substrate proteolysis/cleavage): residue fixed at P4 position of substrate library; for P3 Position Substrate Activity for hepsin (percent substrate cleavage/proteolysis): residue fixed at P3 position
T3 construct: purchased R&D Systems 4776-SE-010
T3 sequence (P05981 163-417 limits assumed): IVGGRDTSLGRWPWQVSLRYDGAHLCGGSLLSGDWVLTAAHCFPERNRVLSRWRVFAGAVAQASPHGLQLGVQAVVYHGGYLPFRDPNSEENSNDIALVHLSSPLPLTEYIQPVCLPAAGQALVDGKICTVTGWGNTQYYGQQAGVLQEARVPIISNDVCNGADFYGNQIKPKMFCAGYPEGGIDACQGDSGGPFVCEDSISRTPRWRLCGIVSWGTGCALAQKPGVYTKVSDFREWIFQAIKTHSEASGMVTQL
T3 sequence (P05981 1-162 partner limits assumed): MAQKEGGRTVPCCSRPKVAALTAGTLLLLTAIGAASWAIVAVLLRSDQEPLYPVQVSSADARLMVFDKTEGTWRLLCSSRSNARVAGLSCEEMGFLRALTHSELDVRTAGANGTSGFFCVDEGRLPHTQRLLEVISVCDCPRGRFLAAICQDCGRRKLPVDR

TMPRSS2 = TMPRSS2 (Homo sapiens, UniProt O15393); test: PS-SCL / HyCoSuL substrate specificity screening, TMPRSS2; settings: for P2 Position Substrate Activity for TMPRSS2 (percent substrate cleavage/proteolysis): residue fixed at P2 position of substrate library; for P2 Position Substrate Activity for TMPRSS2 (percent substrate cleavage/proteolysis) / P3 Position Substrate Activity for TMPRSS2 (percent substrate cleavage/proteolysis): best recognized amino acid set to 100%; for P3 Position Various Amino Acids Substrate Activity, TMPRSS2 (percent substrate cleavage/proteolysis) / P3 Position Substrate Activity for TMPRSS2 (percent substrate cleavage/proteolysis): residue fixed at P3 position of substrate library; for P4 Position Various Amino Acids Substrate Activity, TMPRSS2 (percent substrate proteolysis/cleavage): residue fixed at P4 position of substrate library
TMPRSS2, sequence (O15393 whole entry): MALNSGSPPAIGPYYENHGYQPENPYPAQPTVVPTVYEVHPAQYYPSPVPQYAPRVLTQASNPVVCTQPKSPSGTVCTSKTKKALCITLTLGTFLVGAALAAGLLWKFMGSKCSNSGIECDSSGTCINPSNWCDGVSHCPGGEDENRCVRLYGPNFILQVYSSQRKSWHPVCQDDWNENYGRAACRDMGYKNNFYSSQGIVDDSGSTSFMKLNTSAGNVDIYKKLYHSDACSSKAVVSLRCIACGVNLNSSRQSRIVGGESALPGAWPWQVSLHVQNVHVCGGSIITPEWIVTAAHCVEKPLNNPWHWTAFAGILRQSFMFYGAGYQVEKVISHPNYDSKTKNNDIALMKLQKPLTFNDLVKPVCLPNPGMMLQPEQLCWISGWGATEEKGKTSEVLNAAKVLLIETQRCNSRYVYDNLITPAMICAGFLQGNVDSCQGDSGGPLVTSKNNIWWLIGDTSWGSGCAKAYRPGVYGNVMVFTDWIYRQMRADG

Substance	P2 Position Substrate Activity for matriptase (percent substrate cleavage/proteolysis) (matriptase)	P3 Position Various Amino Acids Substrate Activity, matriptase (percent substrate cleavage/proteolysis) (matriptase)	P4 Position Various Amino Acids Substrate Activity, matriptase (percent substrate proteolysis/cleavage) (matriptase)	P2 Position Substrate Activity for HGFA (percent substrate cleavage/proteolysis) (HGFA)	P3 Position Various Amino Acids Substrate Activity, HGFA (percent substrate cleavage/proteolysis) (HGFA)	P4 Position Various Amino Acids Substrate Activity, HGFA (percent substrate proteolysis/cleavage) (HGFA)	P2 Position Substrate Activity for hepsin (percent substrate cleavage/proteolysis) (hepsin)	P3 Position Various Amino Acids Substrate Activity, hepsin (percent substrate cleavage/proteolysis) (hepsin)	P4 Position Various Amino Acids Substrate Activity, hepsin (percent substrate proteolysis/cleavage) (hepsin)	P2 Position Substrate Activity for TMPRSS2 (percent substrate cleavage/proteolysis) (TMPRSS2)	P3 Position Various Amino Acids Substrate Activity, TMPRSS2 (percent substrate cleavage/proteolysis) (TMPRSS2)	P4 Position Various Amino Acids Substrate Activity, TMPRSS2 (percent substrate proteolysis/cleavage) (TMPRSS2)	P3 Position Substrate Activity for matriptase (percent substrate cleavage/proteolysis) (matriptase)	P3 Position Substrate Activity for HGFA (percent substrate cleavage/proteolysis) (HGFA)	P3 Position Substrate Activity for hepsin (percent substrate cleavage/proteolysis) (hepsin)	P3 Position Substrate Activity for TMPRSS2 (percent substrate cleavage/proteolysis) (TMPRSS2)
D-Leu	0%	4%	9%	0.00%	7.08%	10.56%	0.00%	20.14%	24.76%	0.00%	0.00%	28.04%	–	–	–	–
D-Lys	0%	15%	14%	0.00%	–	17.66%	0.00%	–	49.84%	0.00%	–	16.31%	14.70%	21.11%	64.56%	0.00%
D-Phe	0%	5%	6%	0.00%	15.22%	8.13%	0.00%	24.92%	13.15%	0.00%	3.80%	24.14%	–	–	–	–
D-Pro	0%	0%	9%	0.00%	4.96%	10.30%	0.00%	38.88%	20.45%	0.00%	0.00%	19.76%	–	–	–	–
D-Ser	0%	2%	10%	0.00%	10.86%	7.94%	11.55%	54.84%	21.84%	0.00%	0.00%	31.72%	–	–	–	–
D-Thr	0%	2%	9%	0.00%	6.45%	8.61%	0.00%	36.69%	25.74%	0.00%	0.00%	22.57%	–	–	–	–
D-Trp	0%	5%	5%	0.00%	–	7.65%	0.00%	–	1.48%	0.00%	–	22.02%	76.43%	87.59%	24.90%	31.94%
D-Tyr	0%	6%	7%	0.00%	17.32%	10.09%	0.00%	29.94%	12.66%	0.00%	4.49%	33.78%	–	–	–	–
D-Val	0%	1%	7%	0.00%	5.76%	8.25%	0.00%	27.04%	22.58%	0.00%	0.00%	17.70%	–	–	–	–

Source: US20250171495A1, “MUTLI-TARGETED SERINE PROTEASE INHIBITORS FOR TREATMENT OF CANCER AND VIRAL INFECTION” (Washington University, priority 2023, published 2025)
